Measured values from BindingDB's records for doi:10.1016/s0960-894x(03)00792-3 (Eli Lilly, 2003).

These compounds were tested against cAMP-dependent protein kinase catalytic subunit alpha (Bos taurus, UniProt P00517) (assay: CDK Kinase Inhibition Assay). Conditions: 25 °C.

IC50 [µM]	SMILES
> 20	CN(C)CCCn1cc(C2=C(c3c[nH]c4ccccc34)C(=O)NC2=O)c2ccccc21 [2-[1-(3-dimethylaminopropyl)-indol-3-yl]-3-(indol-3-yl)maleimide]
> 20	Cn1cc(C2=C(c3cn(C)c4ccccc34)C(=O)NC2=O)c2ccccc21 [3,4-bis(1-methyl-1H-indol-3-yl)-2,5-dihydro-1H-pyrrole-2,5-dione]
> 20	O=C1NC(=O)c2c1c1c3ccccc3[nH]c1c1c2c2ccccc2n1CCCO [3-(3-hydroxypropyl)-3,13,23-triazahexacyclo[14.7.0.0^{2,10}.0^{4,9}.0^{11,15}.0^{17,22}]tricosa-1(16),2(10),4(9),5,7,11(15),17(22),18,20-nonaene-12,14-dione]
> 20	Cn1cc(C2=C(c3cn(CC(O)CO)c4ccccc34)C(=O)NC2=O)c2ccccc21 (stereo unspecified) [3-[1-(2,3-dihydroxypropyl)-1H-indol-3-yl]-4-(1-methyl-1H-indol-3-yl)-2,5-dihydro-1H-pyrrole-2,5-dione]
> 20	Cn1c2ccccc2c2c3c(c4c5ccccc5[nH]c4c21)C(=O)NC3=O [3-methyl-3,13,23-triazahexacyclo[14.7.0.0^{2,10}.0^{4,9}.0^{11,15}.0^{17,22}]tricosa-1(16),2(10),4(9),5,7,11(15),17(22),18,20-nonaene-12,14-dione]
> 20	COc1ccc2c(c1)[nH]c1c3[nH]c4cc(OC)ccc4c3c3c(c21)C(=O)NC3=O [6,20-dimethoxy-3,13,23-triazahexacyclo[14.7.0.0^{2,10}.0^{4,9}.0^{11,15}.0^{17,22}]tricosa-1(16),2(10),4(9),5,7,11(15),17(22),18,20-nonaene-12,14-dione]
> 20	Cn1c2ccccc2c2c3c(c4c5ccc(Br)cc5[nH]c4c21)C(=O)NC3=O [indolocarbazole deriv. 4(f)]
> 20	Cn1c2ccccc2c2c3c(c4c5ccc(F)cc5[nH]c4c21)C(=O)NC3=O [indolocarbazole deriv. 4(h)]

SMILES	IC50 [µM]
O=C1NC(=O)c2c1c1c3ccccc3[nH]c1c1[nH]c3ccccc3c21 [6,7,12,13-Tetrahydro-5,7-dioxo-5H-indolo[2,3-a]pyrrolo[3,4-c]carbazole]	> 20

Each compound was assayed against Cyclin-dependent kinase 4/G1/S-specific cyclin-D1 (Homo sapiens, UniProt P11802) (assay: CDK Kinase Inhibition Assay). Conditions: pH 7; 22 °C.
Chain of Cyclin-dependent kinase 4/G1/S-specific cyclin-D1 (P11802 whole entry): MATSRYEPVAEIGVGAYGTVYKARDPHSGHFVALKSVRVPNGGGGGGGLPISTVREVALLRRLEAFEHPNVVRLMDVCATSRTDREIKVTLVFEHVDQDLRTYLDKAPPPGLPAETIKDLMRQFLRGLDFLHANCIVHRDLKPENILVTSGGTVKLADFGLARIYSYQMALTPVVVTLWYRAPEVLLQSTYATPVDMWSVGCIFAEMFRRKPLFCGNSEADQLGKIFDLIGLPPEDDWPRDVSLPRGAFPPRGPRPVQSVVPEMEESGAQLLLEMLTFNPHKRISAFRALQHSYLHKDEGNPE
Chain of Cyclin-dependent kinase 4/G1/S-specific cyclin-D1 (P24385 whole entry, further chain): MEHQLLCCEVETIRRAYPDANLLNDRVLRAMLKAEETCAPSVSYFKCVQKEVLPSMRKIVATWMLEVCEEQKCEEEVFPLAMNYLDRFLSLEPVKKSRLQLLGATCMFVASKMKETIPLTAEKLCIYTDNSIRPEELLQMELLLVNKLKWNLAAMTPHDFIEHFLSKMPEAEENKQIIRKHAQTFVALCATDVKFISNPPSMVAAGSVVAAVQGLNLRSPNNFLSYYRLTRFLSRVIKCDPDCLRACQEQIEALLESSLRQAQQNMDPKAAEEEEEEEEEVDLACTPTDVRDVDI

SMILES	IC50 [µM]
COC(=O)[C@@]1(O)C[C@H]2O[C@]1(C)n1c3ccccc3c3c4c(c5c6ccccc6n2c5c31)C(=O)NC4	0.03
O=C1NC(=O)c2c1c1c3ccccc3n3c1c1c2c2ccccc2n1[C@H]1CC[C@@H]3O1 [28-oxa-4,14,19-triazaoctacyclo[12.11.2.1^{15,18}.0^{2,6}.0^{7,27}.0^{8,13}.0^{19,26}.0^{20,25}]octacosa-1(26),2(6),7(27),8(13),9,11,20(25),21,23-nonaene-3,5-dione]	0.54
